Assay results reported in publication PMC9817970 (Cancers, 2022).

Columns and labels:
Test in all cases: Kinase panel profiling
Type in all cases: biochemical
Conditions in all cases: 10 μM ATP
ACK1 = biological target: T1, ACK1 (Homo sapiens, UniProt Q07912)
T1 construct: purchased Reaction Biology Corp
Description: (§1) Kinase panel profiling was conducted by Reaction Biology Corp. (San Diego, CA, USA). A single dose (1.0 μM) of 6r was tested against 371 recombinant human kinases in the presence of 10 μM ATP.

CDK1/cyclin E = biological target: T2, CDK1/cyclin E (Homo sapiens, UniProt P06493)
T2 construct: purchased Reaction Biology Corp
Description: as §1

CDK17/cyclin Y (PCTK2) = biological target: T3, CDK17/cyclin Y (PCTK2) (Homo sapiens, UniProt Q00537)
T3 construct: purchased Reaction Biology Corp
Description: as §1

CDK18/cyclin Y (PCTK3) = biological target: T4, CDK18/cyclin Y (PCTK3) (Homo sapiens, UniProt Q07002)
T4 construct: purchased Reaction Biology Corp
Description: as §1

CDK19/cyclin C = biological target: T5, CDK19/cyclin C (Homo sapiens, UniProt Q9BWU1)
T5 construct: purchased Reaction Biology Corp
T5 sequence (Q9BWU1 whole entry): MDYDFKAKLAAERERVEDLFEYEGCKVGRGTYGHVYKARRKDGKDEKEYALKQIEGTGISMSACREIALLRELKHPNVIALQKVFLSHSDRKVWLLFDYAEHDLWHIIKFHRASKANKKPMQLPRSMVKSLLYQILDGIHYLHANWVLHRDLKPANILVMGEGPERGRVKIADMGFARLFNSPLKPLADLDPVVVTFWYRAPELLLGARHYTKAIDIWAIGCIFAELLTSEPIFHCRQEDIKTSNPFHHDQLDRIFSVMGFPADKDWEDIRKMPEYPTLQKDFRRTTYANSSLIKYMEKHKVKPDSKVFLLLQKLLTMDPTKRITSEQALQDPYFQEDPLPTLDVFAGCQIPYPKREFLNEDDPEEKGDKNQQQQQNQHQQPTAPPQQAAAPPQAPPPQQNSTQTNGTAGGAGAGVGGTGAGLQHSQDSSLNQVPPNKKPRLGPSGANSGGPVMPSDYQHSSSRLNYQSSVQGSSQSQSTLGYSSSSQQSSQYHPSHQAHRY
T5 sequence (P24863 whole entry partner): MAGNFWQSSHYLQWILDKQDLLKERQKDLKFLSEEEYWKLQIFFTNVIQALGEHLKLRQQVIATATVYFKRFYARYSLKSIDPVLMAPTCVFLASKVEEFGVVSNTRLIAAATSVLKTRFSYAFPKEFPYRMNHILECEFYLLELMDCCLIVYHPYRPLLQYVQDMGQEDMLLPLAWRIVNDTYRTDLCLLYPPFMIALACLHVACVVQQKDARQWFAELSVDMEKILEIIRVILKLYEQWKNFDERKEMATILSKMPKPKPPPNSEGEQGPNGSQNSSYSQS
Description: as §1

CK1epsilon = biological target: T6, CK1epsilon (Homo sapiens, UniProt P49674)
T6 construct: purchased Reaction Biology Corp
Description: as §1

CK2a2 = biological target: T7, CK2a2 (Homo sapiens, UniProt P19784)
T7 construct: purchased Reaction Biology Corp
Description: as §1

CTK/MATK = biological target: T8, CTK/MATK (Homo sapiens, UniProt P42679)
T8 construct: purchased Reaction Biology Corp
Description: as §1

DAPK1 = biological target: T9, DAPK1 (Homo sapiens, UniProt P53355)
T9 construct: purchased Reaction Biology Corp
Description: as §1

DRAK1/STK17A = biological target: T10, DRAK1/STK17A (Homo sapiens, UniProt Q9UEE5)
T10 construct: purchased Reaction Biology Corp
T10 sequence (Q9UEE5 whole entry): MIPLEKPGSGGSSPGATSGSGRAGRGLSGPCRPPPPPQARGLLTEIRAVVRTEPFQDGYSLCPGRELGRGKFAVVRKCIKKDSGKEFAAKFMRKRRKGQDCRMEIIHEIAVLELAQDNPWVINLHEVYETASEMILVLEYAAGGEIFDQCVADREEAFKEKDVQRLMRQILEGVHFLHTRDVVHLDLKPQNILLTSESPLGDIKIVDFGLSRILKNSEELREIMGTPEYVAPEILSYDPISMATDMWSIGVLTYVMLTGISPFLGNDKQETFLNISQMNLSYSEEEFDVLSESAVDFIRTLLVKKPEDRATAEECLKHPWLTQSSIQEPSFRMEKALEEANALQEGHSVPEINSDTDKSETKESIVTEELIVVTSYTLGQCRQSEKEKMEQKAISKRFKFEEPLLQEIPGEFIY
Description: as §1

EPHA3 = biological target: T11, EPHA3 (Homo sapiens, UniProt P29320)
T11 construct: purchased Reaction Biology Corp
Description: as §1

EPHA5 = biological target: T12, EPHA5 (Homo sapiens, UniProt P54756)
T12 construct: purchased Reaction Biology Corp
Description: as §1

EPHA7 = biological target: T13, EPHA7 (Homo sapiens, UniProt Q15375)
T13 construct: purchased Reaction Biology Corp
Description: as §1

ERBB2/HER2 = biological target: T14, ERBB2/HER2 (Homo sapiens, UniProt P04626)
T14 construct: purchased Reaction Biology Corp
Description: as §1

FER = biological target: T15, FER (Homo sapiens, UniProt P16591)
T15 construct: purchased Reaction Biology Corp
T15 sequence (P16591 whole entry): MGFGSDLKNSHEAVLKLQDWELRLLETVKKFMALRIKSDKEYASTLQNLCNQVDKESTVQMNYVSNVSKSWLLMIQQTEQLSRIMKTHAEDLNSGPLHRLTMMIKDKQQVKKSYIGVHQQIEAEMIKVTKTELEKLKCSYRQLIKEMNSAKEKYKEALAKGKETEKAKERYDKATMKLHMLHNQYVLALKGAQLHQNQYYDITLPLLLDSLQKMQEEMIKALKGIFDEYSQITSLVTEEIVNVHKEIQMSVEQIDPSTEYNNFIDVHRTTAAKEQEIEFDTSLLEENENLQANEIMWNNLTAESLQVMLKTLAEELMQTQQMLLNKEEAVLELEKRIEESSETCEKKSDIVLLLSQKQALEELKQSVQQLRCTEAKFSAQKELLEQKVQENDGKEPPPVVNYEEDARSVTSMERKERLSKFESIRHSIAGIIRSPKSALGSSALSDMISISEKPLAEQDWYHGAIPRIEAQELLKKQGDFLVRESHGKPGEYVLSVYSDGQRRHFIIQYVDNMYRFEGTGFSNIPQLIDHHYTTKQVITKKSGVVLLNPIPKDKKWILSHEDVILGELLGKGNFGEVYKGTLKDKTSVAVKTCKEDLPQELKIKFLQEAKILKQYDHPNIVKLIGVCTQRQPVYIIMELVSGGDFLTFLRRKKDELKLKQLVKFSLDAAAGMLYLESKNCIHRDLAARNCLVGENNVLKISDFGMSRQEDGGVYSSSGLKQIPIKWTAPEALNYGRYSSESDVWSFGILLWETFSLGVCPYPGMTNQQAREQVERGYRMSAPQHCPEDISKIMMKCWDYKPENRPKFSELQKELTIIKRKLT
Description: as §1

FGR = biological target: T16, FGR (Homo sapiens, UniProt P09769)
T16 construct: purchased Reaction Biology Corp
Description: as §1

GRK2 = biological target: T17, GRK2 (Homo sapiens, UniProt P25098)
T17 construct: purchased Reaction Biology Corp
T17 sequence (P25098 whole entry): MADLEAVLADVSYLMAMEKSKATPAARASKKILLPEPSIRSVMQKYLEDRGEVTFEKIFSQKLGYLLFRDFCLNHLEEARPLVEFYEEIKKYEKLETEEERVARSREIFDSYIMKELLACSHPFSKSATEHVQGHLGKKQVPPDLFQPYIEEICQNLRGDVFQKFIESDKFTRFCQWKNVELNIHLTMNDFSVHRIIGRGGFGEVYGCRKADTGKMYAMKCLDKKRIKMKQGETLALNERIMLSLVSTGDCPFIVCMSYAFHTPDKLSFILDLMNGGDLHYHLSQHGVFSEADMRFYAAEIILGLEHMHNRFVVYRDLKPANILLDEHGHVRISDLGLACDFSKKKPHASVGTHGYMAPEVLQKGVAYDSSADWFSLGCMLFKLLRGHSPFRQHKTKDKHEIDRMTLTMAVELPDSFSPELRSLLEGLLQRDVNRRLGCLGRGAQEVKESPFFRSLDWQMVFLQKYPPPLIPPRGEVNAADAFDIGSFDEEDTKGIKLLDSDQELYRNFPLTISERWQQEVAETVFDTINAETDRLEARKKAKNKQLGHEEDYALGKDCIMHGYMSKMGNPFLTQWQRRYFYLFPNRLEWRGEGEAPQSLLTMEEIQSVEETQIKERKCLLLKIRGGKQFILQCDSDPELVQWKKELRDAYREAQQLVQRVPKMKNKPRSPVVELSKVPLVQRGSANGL
Description: as §1

GSK3b = biological target: T18, GSK3b (Homo sapiens, UniProt P49841)
T18 construct: purchased Reaction Biology Corp
Description: as §1

HIPK3 = biological target: T19, HIPK3 (Homo sapiens, UniProt Q9H422)
T19 construct: purchased Reaction Biology Corp
Description: as §1

IR = biological target: T20, IR (Homo sapiens, UniProt P06213)
T20 construct: purchased Reaction Biology Corp
Description: as §1

IRAK4 = biological target: T21, IRAK4 (Homo sapiens, UniProt Q9NWZ3)
T21 construct: purchased Reaction Biology Corp
Description: as §1

LKB1 = biological target: T22, LKB1 (Homo sapiens, UniProt Q15831)
T22 construct: purchased Reaction Biology Corp
Description: as §1

MAPKAPK3 = biological target: T23, MAPKAPK3 (Homo sapiens, UniProt Q16644)
T23 construct: purchased Reaction Biology Corp
Description: as §1

MARK3 = biological target: T24, MARK3 (Homo sapiens, UniProt P27448)
T24 construct: purchased Reaction Biology Corp
Description: as §1

MEK3 = biological target: T25, MEK3 (Homo sapiens, UniProt P46734)
T25 construct: purchased Reaction Biology Corp
Description: as §1

MKK6 = biological target: T26, MKK6 (Homo sapiens, UniProt P52564)
T26 construct: purchased Reaction Biology Corp
Description: as §1

MLK3/MAP3K11 = biological target: T27, MLK3/MAP3K11 (Homo sapiens, UniProt Q16584)
T27 construct: purchased Reaction Biology Corp
Description: as §1

PAK1 = biological target: T28, PAK1 (Homo sapiens, UniProt Q13153)
T28 construct: purchased Reaction Biology Corp
Description: as §1

PAK5 = biological target: T29, PAK5 (Homo sapiens, UniProt Q9P286)
T29 construct: purchased Reaction Biology Corp
Description: as §1

PYK2 = biological target: T30, PYK2 (Homo sapiens, UniProt Q14289)
T30 construct: purchased Reaction Biology Corp
Description: as §1

RIPK5 = biological target: T31, RIPK5 (Homo sapiens, UniProt Q6XUX3)
T31 construct: purchased Reaction Biology Corp
T31 sequence (Q6XUX3 whole entry): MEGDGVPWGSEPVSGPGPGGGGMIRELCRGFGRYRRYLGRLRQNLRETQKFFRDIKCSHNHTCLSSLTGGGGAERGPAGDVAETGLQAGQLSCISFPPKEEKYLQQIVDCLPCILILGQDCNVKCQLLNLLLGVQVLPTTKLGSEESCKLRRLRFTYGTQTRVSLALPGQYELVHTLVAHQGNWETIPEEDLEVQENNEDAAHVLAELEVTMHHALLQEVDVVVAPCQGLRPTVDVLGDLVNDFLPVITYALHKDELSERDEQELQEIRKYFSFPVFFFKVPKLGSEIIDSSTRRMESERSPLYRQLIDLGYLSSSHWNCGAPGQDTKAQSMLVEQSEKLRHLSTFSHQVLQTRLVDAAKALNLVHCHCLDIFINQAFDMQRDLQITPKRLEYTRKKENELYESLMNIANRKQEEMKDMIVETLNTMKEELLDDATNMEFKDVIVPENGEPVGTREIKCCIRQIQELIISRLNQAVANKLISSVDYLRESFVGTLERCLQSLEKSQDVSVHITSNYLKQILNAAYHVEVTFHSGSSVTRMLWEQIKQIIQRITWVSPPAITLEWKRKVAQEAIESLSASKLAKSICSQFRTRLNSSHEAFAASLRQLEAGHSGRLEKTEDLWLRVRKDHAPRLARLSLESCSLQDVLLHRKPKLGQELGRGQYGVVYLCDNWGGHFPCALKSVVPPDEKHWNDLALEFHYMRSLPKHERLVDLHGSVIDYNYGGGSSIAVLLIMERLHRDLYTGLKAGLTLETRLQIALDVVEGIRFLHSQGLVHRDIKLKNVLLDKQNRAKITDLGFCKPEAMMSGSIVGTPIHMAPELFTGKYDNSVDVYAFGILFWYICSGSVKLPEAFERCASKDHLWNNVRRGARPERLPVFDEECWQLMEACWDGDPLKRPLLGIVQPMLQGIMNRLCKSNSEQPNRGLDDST
Description: as §1

RSK2 = biological target: T32, RSK2 (Homo sapiens, UniProt P51812)
T32 construct: purchased Reaction Biology Corp
Description: as §1

SIK2 = biological target: T33, SIK2 (Homo sapiens, UniProt Q9H0K1)
T33 construct: purchased Reaction Biology Corp
Description: as §1

SLK/STK2 = biological target: T34, SLK/STK2 (Homo sapiens, UniProt Q9H2G2)
T34 construct: purchased Reaction Biology Corp
Description: as §1

SRPK1 = biological target: T35, SRPK1 (Homo sapiens, UniProt Q96SB4)
T35 construct: purchased Reaction Biology Corp
T35 sequence (Q96SB4 whole entry): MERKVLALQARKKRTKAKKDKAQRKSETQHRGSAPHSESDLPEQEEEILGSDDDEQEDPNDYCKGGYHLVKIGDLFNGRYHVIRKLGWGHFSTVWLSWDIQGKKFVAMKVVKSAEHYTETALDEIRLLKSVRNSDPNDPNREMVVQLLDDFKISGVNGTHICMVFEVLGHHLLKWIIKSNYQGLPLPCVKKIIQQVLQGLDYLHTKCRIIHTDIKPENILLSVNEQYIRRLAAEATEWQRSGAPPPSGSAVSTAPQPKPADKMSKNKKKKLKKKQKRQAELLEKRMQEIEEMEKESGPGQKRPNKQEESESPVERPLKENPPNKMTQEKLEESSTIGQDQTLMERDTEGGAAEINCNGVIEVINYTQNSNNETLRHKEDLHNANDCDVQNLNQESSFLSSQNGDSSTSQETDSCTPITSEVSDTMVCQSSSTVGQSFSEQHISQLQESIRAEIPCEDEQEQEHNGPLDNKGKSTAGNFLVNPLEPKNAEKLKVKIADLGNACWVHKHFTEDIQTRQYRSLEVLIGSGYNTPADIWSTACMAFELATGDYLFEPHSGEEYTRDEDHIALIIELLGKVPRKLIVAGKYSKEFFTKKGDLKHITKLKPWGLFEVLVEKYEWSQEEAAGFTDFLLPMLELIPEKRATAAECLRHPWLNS
Description: as §1

SSTK/TSSK6 = biological target: T36, SSTK/TSSK6 (Homo sapiens, UniProt Q9BXA6)
T36 construct: purchased Reaction Biology Corp
Description: as §1

STK33 = biological target: T37, STK33 (Homo sapiens, UniProt Q9BYT3)
T37 construct: purchased Reaction Biology Corp
Description: as §1

TEC = biological target: T38, TEC (Homo sapiens, UniProt P42680)
T38 construct: purchased Reaction Biology Corp
Description: as §1

TESK1 = biological target: T39, TESK1 (Homo sapiens, UniProt Q15569)
T39 construct: purchased Reaction Biology Corp
Description: as §1

TESK2 = biological target: T40, TESK2 (Homo sapiens, UniProt Q96S53)
T40 construct: purchased Reaction Biology Corp
T40 sequence (Q96S53 whole entry): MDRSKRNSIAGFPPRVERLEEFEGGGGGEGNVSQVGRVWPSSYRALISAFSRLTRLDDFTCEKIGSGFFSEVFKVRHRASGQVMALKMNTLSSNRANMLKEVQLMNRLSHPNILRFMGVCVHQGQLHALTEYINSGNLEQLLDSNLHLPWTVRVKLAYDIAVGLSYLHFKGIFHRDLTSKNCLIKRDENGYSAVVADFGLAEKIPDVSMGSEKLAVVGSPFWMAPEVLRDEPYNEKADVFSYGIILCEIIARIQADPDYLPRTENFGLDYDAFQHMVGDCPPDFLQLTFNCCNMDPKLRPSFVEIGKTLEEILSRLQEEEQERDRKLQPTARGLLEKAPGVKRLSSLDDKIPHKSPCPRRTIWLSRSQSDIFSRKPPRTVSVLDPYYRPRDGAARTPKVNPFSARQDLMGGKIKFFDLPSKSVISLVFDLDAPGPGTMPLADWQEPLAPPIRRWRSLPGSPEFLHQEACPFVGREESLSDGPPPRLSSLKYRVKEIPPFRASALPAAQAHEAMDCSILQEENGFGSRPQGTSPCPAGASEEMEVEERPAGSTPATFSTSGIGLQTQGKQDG
Description: as §1

TRKC = biological target: T41, TRKC (Homo sapiens, UniProt Q16288)
T41 construct: purchased Reaction Biology Corp
Description: as §1

TTBK2 = biological target: T42, TTBK2 (Homo sapiens, UniProt Q6IQ55)
T42 construct: purchased Reaction Biology Corp
Description: as §1

ULK3 = biological target: T43, ULK3 (Homo sapiens, UniProt Q6PHR2)
T43 construct: purchased Reaction Biology Corp
Description: as §1

Cc1ccc(NC(=O)c2ccc(CN3CCN(C)CC3)c(C(F)(F)F)c2)cc1-c1cnc2sc(N)nc2c1 [6r]
inhibition at 1 µM (ACK1): 39.9%
inhibition at 1 µM (CDK1/cyclin E): 0%
inhibition at 1 µM (CDK17/cyclin Y (PCTK2)): 3.9%
inhibition at 1 µM (CDK18/cyclin Y (PCTK3)): 5.1%
inhibition at 1 µM (CDK19/cyclin C): 12.8%
inhibition at 1 µM (CK1epsilon): 24.2%
inhibition at 1 µM (CK2a2): 1%
inhibition at 1 µM (CTK/MATK): 8.1%
inhibition at 1 µM (DAPK1): 10.1%
inhibition at 1 µM (DRAK1/STK17A): 0%
inhibition at 1 µM (EPHA3): 41.1%
inhibition at 1 µM (EPHA5): 78.5%
inhibition at 1 µM (EPHA7): 40.7%
inhibition at 1 µM (ERBB2/HER2): 5.4%
inhibition at 1 µM (FER): 0%
inhibition at 1 µM (FGR): 87.7%
inhibition at 1 µM (GRK2): 0%
inhibition at 1 µM (GSK3b): 12.9%
inhibition at 1 µM (HIPK3): 0.2%
inhibition at 1 µM (IR): 1.9%
inhibition at 1 µM (IRAK4): 0%
inhibition at 1 µM (LKB1): 0%
inhibition at 1 µM (MAPKAPK3): 10.7%
inhibition at 1 µM (MARK3): 0%
inhibition at 1 µM (MEK3): 5.2%
inhibition at 1 µM (MKK6): 6.6%
inhibition at 1 µM (MLK3/MAP3K11): 23.7%
inhibition at 1 µM (PAK1): 6.9%
inhibition at 1 µM (PAK5): 5%
inhibition at 1 µM (PYK2): 48.1%
inhibition at 1 µM (RIPK5): 4.4%
inhibition at 1 µM (RSK2): 32.4%
inhibition at 1 µM (SIK2): 5.6%
inhibition at 1 µM (SLK/STK2): 37.8%
inhibition at 1 µM (SRPK1): 46.3%
inhibition at 1 µM (SSTK/TSSK6): 0%
inhibition at 1 µM (STK33): 9.5%
inhibition at 1 µM (TEC): 1.6%
inhibition at 1 µM (TESK1): 5.3%
inhibition at 1 µM (TESK2): 15.1%
inhibition at 1 µM (TRKC): 13.6%
inhibition at 1 µM (TTBK2): 23.2%
inhibition at 1 µM (ULK3): 7.2%
